Data on 1 substance can be found in patent publication US10478451B2, “Use of dextran sulfate” (TX Medic AB, priority 2015, dated 2019).

Data set [1] has as its system myocardial infarction induced interstitial fibrosis. Description: Anti-fibrosis effect in a rat model of myocardial infarction (interstitial fibrosis, Masson's Trichrome staining). Type of data set: in vivo. The text has this: The present study assessed the effect of dextran sulfate in inhibiting or reducing fibrosis in a rat model of myocardial infarction (MI).
The myocardial infarction model in rat involved ligations of the left coronary artery permanently with an intramural stitch. The surgery caused obstruction of the blood flow and subsequently to severe ischemic damage and cardiac walls infarct.
In total 120 female SD rats having an average body weight of 178 g at study initiation (Day 0) were obtained from Harlan Laboratories, Israel. Animals were fed ad libitum a commercial rodent diet (Teklad Certified Global 18% Protein Diet). Animals had free access to autoclaved and acidified drinking water (pH between 2.5 and 3.5) obtained from the municipality supply. Animals were housed under standard laboratory conditions, air conditioned and filtered (HEPA F6/6) with adequate fresh air supply (minimum air changes/hour). Animals were kept in a climate controlled environment with a temperatures range of 20-24° C. and RH range of 30-70% with 12 hours light and 12 hours dark cycle.
Dextran sulfate with an average molecular weight within a range of 5-7 kDa was dissolved in 0.9% NaCl (saline) (Teva Pharmaceutical Industries Ltd) to be injected subcutaneous at doses of 15 mg/kg or 3 mg/kg. […]
Masson's Trichrome Staining was used for fibrosis evaluation. […] The sections were visualized in a computer-imaging system and infarct size was marked and calculated using the ImageJ program. For each animal, five serial sections including one containing the ligature were analyzed and the mean value of all sections for each heart was treated as one value for statistical analysis. […]
Interstitial fibrosis in the marginal area of the infarct was estimated manually in heart sections stained with Masson's Trichrome Staining. The area of interstitial fibrosis was calculated as the percent of the total area of the left ventricle. For each rat five cross-sections were analyzed.

For data set [2] the following is noted: orally delivered; mice, rats, hamsters and guinea pigs; cited from earlier work.

Entries after “also recorded” stand apart in the source; their conditions may differ.

For Dextran sulfate, the “interstitial fibrosis compared to vehicle control group 1M (in words)” value in data set [1] (group 2M: 15 mg/kg s.c., 3 times a week for 3 weeks, P<0.01, five weeks post-infarction) is “significant suppression of myocardial infarction induced interstitial fibrosis; also recorded: significantly decreased fibrosis”. In addition, the “extent of interstitial fibrosis (area of interstitial fibrosis as percent of the total area of the left ventricle)” value in data set [1] (group 2M: 15 mg/kg s.c., 3 times a week for 3 weeks, female SD rats, margin zone of infarct, day 36 after MI, vehicle group 1M 22.7±1.9%) stood at 11.9±0.9%. In data set [1] (groups 3M-5M: 15 mg/kg s.c. 3 times a week for 1 week, 15 mg/kg single dose, 3 mg/kg 3 times a week for 1 week, day 36 after MI), the “extent of interstitial fibrosis compared to vehicle control group 1M (in words)” value is “also lower in the other dextran sulfate treated groups 3M-5M, although the difference was not significant”. Further, the “induction of colitis and intestinal fibrosis” value in data set [2] was “known to induce colitis and intestinal fibrosis”.
